# Assay results reported in ChEMBL document CHEMBL4813944 (Eur J Med Chem, 2021).
# Activity calls are given as the source filed them. The calls are words filed in the database; no cut-off is given here.
# Key:
# [1] = test system: SH-SY5Y; assay: Inhibition of Salsolinol-induced oxidative stress in human SH-SY5Y cells assessed as superoxide radical formation at 0.1 uM measured after 24 hrs by DHE staining based fluorescence spectrophotometry (reference value: 100%); format: functional; set-up: scale not given: the % may be the effect or the level left
# [2] = test system: SH-SY5Y; assay: Inhibition of Salsolinol-induced oxidative stress in human SH-SY5Y cells assessed as superoxide radical formation at 1 uM measured after 24 hrs by DHE staining based fluorescence spectrophotometry (reference value: 100%); format: functional; set-up: scale not given: the % may be the effect or the level left
# [3] = Cytotoxicity against human SH-SY5Y cells assessed as cell viability at 1 uM measured after 24 hrs by calcein-AM staining based fluorescence analysis; details: read-out: Activity
# [4] = test system: SH-SY5Y; assay: Inhibition of glutamate-induced mitochondrial depolarization in human SH-SY5Y cells assessed as recovery of mitochondrial membrane potential at 0.1 to 1 uM incubated for 1 hr by JC10 dye based fluorescence analysis; format: functional, cell-based; details: dose 0.1-1 µM
# [5] = test system: SH-SY5Y; assay: Neuroprotective activity against salsolinol-induced neurotoxicity in human SH-SY5Y cells assessed as cell viability at 0.1 uM measured after 24 hrs by calcein-AM staining based fluorescence analysis (reference value: 70.49 +/-0.51%); format: functional; details: read-out: Activity
# [6] = test system: SH-SY5Y; assay: Neuroprotective activity against glutamate-induced neurotoxicity in human SH-SY5Y cells assessed as cell death at 1 uM measured after 24 hrs by PI staining based assay (reference value: 100%); format: functional
# [7] = test system: SH-SY5Y; assay: Inhibition of salsolinol-induced apoptosis in human SH-SY5Y cells assessed as caspase 3/7 activity at 0.1 uM incubated for 24 hrs using Ac-DEVD-AMC as substrate by fluorescence analysis (reference value: 100%); format: functional; set-up: scale not given: the % may be the effect or the level left
# [8] = test system: SH-SY5Y; assay: Inhibition of glutamate-induced apoptosis in human SH-SY5Y cells assessed as reduction in caspase 3/7 activity at 0.1 to 1 uM incubated for 1 hr using Ac-DEVD-AMC as substrate by fluorescence analysis; format: functional; details: dose 0.1-1 µM
# [9] = test system: SH-SY5Y; assay: Inhibition of salsolinol-induced mitochondrial depolarization in human SH-SY5Y cells assessed as mitochondrial membrane potential at 10 uM measured after 24 hrs by JC-1 staining based flow cytometry (reference value: 45.3 +/-2.09%); format: functional
# [10] = test system: SH-SY5Y; assay: Inhibition of glutamate-induced oxidative stress in human SH-SY5Y cells assessed as superoxide radical formation at 1 uM measured after 4 hrs by DHE staining based fluorescence spectrophotometry (reference value: 100%); format: functional; set-up: scale not given: the % may be the effect or the level left
# [11] = test system: SH-SY5Y; assay: Inhibition of salsolinol-induced mitochondrial depolarization in human SH-SY5Y cells assessed as recovery of mitochondrial membrane potential at 0.1 uM measured after 24 hrs by JC-1 staining based flow cytometry; format: functional, cell-based
# [12] = test system: SH-SY5Y; assay: Inhibition of salsolinol-induced apoptosis in human SH-SY5Y cells assessed as appearance of necrotic cells at 1 uM measured after 24 hrs by AO/PIstaining based fluorescence microscopy; format: functional, cell-based
# [13] = test system: SH-SY5Y; assay: Neuroprotective activity against salsolinol-induced neurotoxicity in human SH-SY5Y cells assessed as cell death at 1 uM measured after 24 hrs by PI staining based analysis (reference value: 100%); format: functional
# [14] = Inhibition of salsolinol-induced mPTP opening in human SH-SY5Y cells assessed as fold change in fluorescence intensity at 1 uM measured after 24 hrs by calcein AM/CoCl2 based fluorescence microscopic analysis (reference value: 0.49 +/-0.02); format: functional
# [15] = test system: SH-SY5Y; assay: Inhibition of Salsolinol-induced oxidative stress in human SH-SY5Y cells assessed as reduction in superoxide radical formation at 1 uM measured after 24 hrs by DHE staining based fluorescence microscopy; format: functional, cell-based
# [16] = Cytotoxicity against human SH-SY5Y cells assessed as cell viability at 10 uM measured after 24 hrs by calcein-AM staining based fluorescence analysis; details: read-out: Activity
# [17] = test system: SH-SY5Y; assay: Neuroprotective activity against salsolinol-induced neurotoxicity in human SH-SY5Y cells assessed as cell death at 0.1 uM measured after 24 hrs by PI staining based analysis (reference value: 100%); format: functional
# [18] = test system: SH-SY5Y; assay: Inhibition of salsolinol-induced apoptosis in human SH-SY5Y cells assessed as caspase 3/7 activity at 1 uM incubated for 24 hrs using Ac-DEVD-AMC as substrate by fluorescence analysis (reference value: 100%); format: functional; set-up: scale not given: the % may be the effect or the level left
# [19] = test system: SH-SY5Y; assay: Inhibition of glutamate-induced oxidative stress in human SH-SY5Y cells assessed as superoxide radical formation at 0.1 uM measured after 4 hrs by DHE staining based fluorescence spectrophotometry (reference value: 100%); format: functional; set-up: scale not given: the % may be the effect or the level left
# [20] = Cytotoxicity against human SH-SY5Y cells assessed as cell viability at 0.1 uM measured after 24 hrs by calcein-AM staining based fluorescence analysis; details: read-out: Activity
# [21] = test system: SH-SY5Y; assay: Neuroprotective activity against salsolinol-induced neurotoxicity in human SH-SY5Y cells assessed as cell viability at 1 uM measured after 24 hrs by calcein-AM staining based fluorescence analysis (reference value: 70.49 +/-0.51%); format: functional; details: read-out: Activity
# [22] = test system: SH-SY5Y; assay: Inhibition of glutamate-induced oxidative stress in human SH-SY5Y cells assessed as reduction in superoxide radical formation at 1 uM measured after 4 hrs by DHE staining based fluorescence microscopy; format: functional, cell-based
# [23] = test system: SH-SY5Y; assay: Inhibition of glutamate-induced apoptosis in human SH-SY5Y cells assessed as caspase 3/7 activity at 0.05 uM incubated for 1 hr using Ac-DEVD-AMC as substrate by fluorescence analysis (reference value: 100%); format: functional; set-up: scale not given: the % may be the effect or the level left
# [24] = test system: SH-SY5Y; assay: Inhibition of glutamate-induced apoptosis in human SH-SY5Y cells assessed as caspase 3/7 activity at 0.5 uM incubated for 1 hr using Ac-DEVD-AMC as substrate by fluorescence analysis (reference value: 100%); format: functional; set-up: scale not given: the % may be the effect or the level left
# [25] = test system: SH-SY5Y; assay: Inhibition of salsolinol-induced apoptosis in human SH-SY5Y cells assessed as caspase 3/7 activity at 0.05 uM incubated for 24 hrs using Ac-DEVD-AMC as substrate by fluorescence analysis (reference value: 100%); format: functional; set-up: scale not given: the % may be the effect or the level left
# [26] = test system: SH-SY5Y; assay: Inhibition of salsolinol-induced apoptosis in human SH-SY5Y cells assessed as caspase 3/7 activity at 0.5 uM incubated for 24 hrs using Ac-DEVD-AMC as substrate by fluorescence analysis (reference value: 100%); format: functional; set-up: scale not given: the % may be the effect or the level left
structure (smiles),measurement,setting,value
C=C(C(=O)OCc1c[nH]nn1)[C@@H]1CC[C@]2(COC(C)=O)CC[C@]3(C)[C@H](CC[C@@H]4[C@@]5(C)CC[C@H](OC(C)=O)C(C)(C)[C@@H]5CC[C@]43C)[C@@H]12,Activity,[1],83.7%
same,Activity,[2],81%
same,"viability at 24 h, 1 µM",[3],119%
same,Activity,[4],inactive
same,viability at 0.1 µM,[5],81.4%
same,Activity,[6],85%
same,Activity,[7],42.2%
same,inhibition (INH),[8],6%
same,Activity,[9],inactive
same,Activity,[10],72.2%
same,Activity,[11],Active
same,Activity,[12],Active
same,Activity,[13],59.3%
same,fold change (FC),[14],1.14
same,inhibition,[15],Active
same,"viability at 24 h, 10 µM",[16],30.5%
same,Activity,[17],62.3%
same,Activity,[18],24.3%
same,Activity,[19],75.7%
same,"viability at 24 h, 0.1 µM",[20],97.4%
same,viability at 1 µM,[21],97.9%
same,inhibition,[22],Active
CC(=O)N[C@@H](CC(=O)O)C(=O)N[C@@H](CCC(=O)O)C(=O)N[C@H](C(=O)N[C@@H](CC(=O)O)C(=O)O)C(C)C,Activity,[23],27.8%
same,Activity,[24],13.7%
same,Activity,[25],36.9%
same,Activity,[26],30.8%
